Our source for the IC50 values is patent US20120142685A1, “ORGANIC COMPOUNDS” (priority 2007, published 2012).

In one assay the target is T1, protein kinase D2 (PKD2) (Homo sapiens, UniProt Q9BZL6).
T1 construct: This assay is performed with full length wild-type enzyme purchase from Invitrogen; purchased Invitrogen
T1 sequence (Q9BZL6 1-878): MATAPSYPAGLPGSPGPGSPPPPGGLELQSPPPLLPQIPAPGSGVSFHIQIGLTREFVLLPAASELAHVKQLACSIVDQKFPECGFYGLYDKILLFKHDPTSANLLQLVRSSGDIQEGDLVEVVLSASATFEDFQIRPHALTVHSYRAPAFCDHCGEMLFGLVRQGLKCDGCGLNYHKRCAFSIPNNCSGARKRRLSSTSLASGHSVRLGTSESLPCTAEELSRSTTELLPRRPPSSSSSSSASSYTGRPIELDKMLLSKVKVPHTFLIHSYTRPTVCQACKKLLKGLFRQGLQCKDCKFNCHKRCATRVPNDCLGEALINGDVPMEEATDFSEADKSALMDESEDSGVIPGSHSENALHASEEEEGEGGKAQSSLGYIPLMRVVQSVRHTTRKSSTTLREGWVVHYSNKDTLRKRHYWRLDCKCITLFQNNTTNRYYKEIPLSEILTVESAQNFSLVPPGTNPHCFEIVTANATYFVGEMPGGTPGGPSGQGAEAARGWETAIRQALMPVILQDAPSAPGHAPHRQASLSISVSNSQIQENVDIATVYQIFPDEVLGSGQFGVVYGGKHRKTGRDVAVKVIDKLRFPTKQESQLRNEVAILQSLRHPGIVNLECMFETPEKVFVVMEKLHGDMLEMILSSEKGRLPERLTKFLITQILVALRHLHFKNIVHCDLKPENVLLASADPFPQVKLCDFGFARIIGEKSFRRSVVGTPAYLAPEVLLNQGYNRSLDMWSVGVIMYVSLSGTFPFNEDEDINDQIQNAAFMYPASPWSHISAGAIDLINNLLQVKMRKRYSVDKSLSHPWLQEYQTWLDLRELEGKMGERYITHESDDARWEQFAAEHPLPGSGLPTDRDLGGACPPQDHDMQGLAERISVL
The assay is described as follows: PKD2 TR-FRET (LANCE) kinase assay. Particulars: full length wild-type enzyme, 20 μM ATP; read-out: Inhibitory Activity PKD2. Type of assay: biochemical. The source says: (§1) The assay to measure protein kinase D2 (PKD2) activity is a time-resolved fluorescence resonance transfer (TR-FRET) assay using PerkinElmer's LANCE™ technology. In this case, a biotinylated syntide-2 peptide is used as the substrate in this reaction. Phosphorylation of the syntide-2 substrate is detected by a specific antibody that recognizes the phosphorylated peptide. A second fluorophore, APC, is conjugated to streptavidin that binds the biotinylated syntide-2 peptide. […] Therefore, when the europium labeled secondary antibody binds on the phosphorylated peptide, it is brought into close contact with the APC and excites this fluorophore.
(§2) This assay is performed with full length wild-type enzyme purchase from Invitrogen. The reaction buffer consists of 35 mM Tris-HCl pH7.5, 5 mM MgCl2, 0.02% Tween-20, 20 μM ATP, 1 mM DTT and 0.2 μg/mL PKD2 enzyme. The enzyme reaction is initiated by the addition of 2 μM syntide-2 peptide substrate and the reaction carried out for 50 minutes at room temperature. The reaction is stopped by a stop/detection buffer consisting of 50 mM EDTA, 0.18 mg/mL rabbit polyclonal anti-phospho syntide-2 antibody, 0.5 nM europium labeled anti-rabbit IgG and 10 nM streptavidin conjugated APC. After a one hour incubation with the stop/detection buffer, the reaction is read on an Envision 2100 Reader using a LANCE™ Eu/APC dual protocol. […] IC50 values are calculated using an Activity Base (IDBS) software program.
(In TR-FRET formats the signal depends on donor and acceptor labels being close together.)

A further assay has as its target T2, protein kinase D3 (PKD3) (Homo sapiens, UniProt O94806).
T2 construct: This assay is performed with full length wild-type enzyme that is purchased from Invitrogen; purchased Invitrogen
T2 sequence (O94806 1-890): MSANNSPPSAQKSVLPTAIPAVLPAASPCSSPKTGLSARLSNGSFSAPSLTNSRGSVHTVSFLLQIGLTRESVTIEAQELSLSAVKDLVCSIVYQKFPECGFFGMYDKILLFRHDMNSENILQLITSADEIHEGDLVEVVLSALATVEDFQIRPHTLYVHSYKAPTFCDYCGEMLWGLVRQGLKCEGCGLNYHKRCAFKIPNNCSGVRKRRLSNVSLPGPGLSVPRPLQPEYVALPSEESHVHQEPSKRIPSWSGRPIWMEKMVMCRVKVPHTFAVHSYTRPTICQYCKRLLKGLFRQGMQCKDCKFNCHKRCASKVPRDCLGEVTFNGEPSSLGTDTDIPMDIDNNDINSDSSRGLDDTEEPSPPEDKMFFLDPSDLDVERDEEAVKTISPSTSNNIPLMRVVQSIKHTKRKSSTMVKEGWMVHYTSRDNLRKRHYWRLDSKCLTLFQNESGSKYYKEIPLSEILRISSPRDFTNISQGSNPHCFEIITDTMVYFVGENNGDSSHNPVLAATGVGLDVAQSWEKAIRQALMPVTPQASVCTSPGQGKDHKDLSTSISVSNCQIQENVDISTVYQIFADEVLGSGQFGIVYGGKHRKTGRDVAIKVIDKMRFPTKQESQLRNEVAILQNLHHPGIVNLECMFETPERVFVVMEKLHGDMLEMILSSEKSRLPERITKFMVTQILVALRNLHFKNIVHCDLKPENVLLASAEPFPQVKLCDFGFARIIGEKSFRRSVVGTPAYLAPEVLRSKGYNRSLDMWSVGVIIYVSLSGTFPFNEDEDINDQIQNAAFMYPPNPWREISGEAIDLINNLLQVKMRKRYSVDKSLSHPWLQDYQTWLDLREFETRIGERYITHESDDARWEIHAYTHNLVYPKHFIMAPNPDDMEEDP
The assay is described as follows: PKD3 TR-FRET (LANCE) kinase assay. Type of assay: biochemical. Particulars: full length wild-type enzyme, 20 μM ATP; read-out: Inhibitory Activity PKD3.
Excerpt: as §1, with “D3 (PKD3)” for “D2 (PKD2)”
as §2, with “that is purchased” for “purchase”, “PKD3” for “PKD2”, “LANCET™” for “LANCE™”

Turning to `Cn1ccc(Nc2cc(-c3cc4cnccc4c(N4CCC(C(N)=O)CC4)n3)ccn2)n1` [Example 19, 1-{3-[2-(1-Methyl-1H-pyrazol-3-ylamino)pyridin-4-yl]-[2,6]naphthyridin-1-yl}piperidine-4-carboxylic acid amide], the IC50 was found to be 2 nM at protein kinase D2 (PKD2) and 0.4 nM on protein kinase D3 (PKD3).
With `Cn1ccc(Nc2cc(-c3cc4cnccc4c(N4CCC5(CCNC5=O)CC4)n3)ccn2)n1` [Example 20, 8-{3-[2-(1-Methyl-1H-pyrazol-3-ylamino)pyridin-4-yl]-[2,6]naphthyridin-1-yl}-2,8-diaza-spiro[4.5]decan-1-one], the results for the IC50 on protein kinase D2 (PKD2) and on protein kinase D3 (PKD3) were 59 nM and 9 nM, respectively.
In the same order, the values of `COCCNc1cc(-c2cc3cnccc3c(N3CCNCC3)n2)ccn1` [Example 21, (2-Methoxyethyl)-[4-(1-piperazin-1-yl-[2,6]naphthyridin-3-yl)-pyridin-2-yl]amine] are 120 nM and 10 nM.
